{"source": "patent US7176224B2", "about": "“Oxazolyl-aryloxyacetic acid derivatives and their use as PPAR agonists” (Eli Lilly and Company, priority 2000, dated 2007)", "key": {"Hu apoAI transgenic mice": {"tested_on": "Hu apoAI transgenic mice", "assay": "Evaluation of triglyceride and cholesterol levels in hu apoAI transgenic mice", "type": "in vivo", "settings": "30 mg/kg oral gavage daily for 7 days; serum HDLc FPLC area under the curve, over mice receiving vehicle", "procedure": "Five to six week old male mice, transgenic for human apoAI [C57B1/6-tgn(apoa1) 1rub, Jackson Laboratory, Bar Harbor, Me.] were housed five per cage (10″×20″8″ with aspen chip bedding) with food (Purina 5001) and water available at all times. After an acclimation period of 2 weeks, animals were individually identified by ear notches, weighed, and assigned to groups based on body weight. Beginning the following morning, mice were dosed daily by oral gavage for 7 days using a 20 gauge, 1½″ curved disposable feeding needle (Popper & Sons). Treatments were test compounds (30 mg/kg), a positive control (fenofibrate, 100 mg/kg) or vehicle [1% carboxymethylcellulose (w/v)/0.25% Tween80 (w/v); 0.2 ml/mouse]. Prior to termination on day 7, mice were weighed and dosed. Three hours after dosing, animals were anesthetized by inhalation of isoflurane (2–4%; Abbott Laboratories, Chicago, Ill.) and blood obtained via cardiac puncture (0.7–1.0 ml). Whole blood was transferred to serum separator tubes (Vacutainer SST), chilled on ice, and permitted to clot. Serum was obtained after centrifugation at 4° C. and frozen until analysis for triglycerides, total cholesterol, compound levels, and serum lipoprotein profile by fast protein liquid chromatography (FPLC) coupled to an inline detection system. After sacrifice by cervical dislocation, the liver, heart and epididymal fat pads were excised and weighed.\nThe animals dosed with vehicle had average triglycerides values of 60–80 mg/dl, which were reduced by the positive control fenofibrate (33–58 mg/dl with a mean reduction of 37%). The animals dosed with vehicle had average total serum cholesterol values of 140–180 mg/dl, which were increased by fenofibrate (190–280 mg/dl, with a mean elevation of 41%). […] increased the amount of HDLc (68–96 v-sec with a mean percent increase of 48%).\nGlucose was measured colorimetrically using commercially purchased reagents (Sigma #315-500). According to the manufacturers, the procedures were modified from published work (McGowan, M. W., Artiss, J. D., Strandbergh, D. R. & Zak, B. Clin Chem, 20:470–5 (1974) and Keston, A. Specific colorimetric enzymatic analytical reagents for glucose. Abstract of papers 129th Meeting ACS, 31C (1956).); and depend on the release of a mole of hydrogen peroxide for each mole of analyte, coupled with a color reaction first described by Trinder (Trinder, P. Determination of glucose in blood using glucose oxidase with an alternative oxygen acceptor. Ann Clin Biochem, 6:24 (1969)). The absorbance of the dye produced is linearly related to the analyte in the sample. The assays were further modified in our laboratory for use in a 96 well format. Standards (Sigma #339-11, Sigma #16-11, and Sigma #CC0534 for glucose, triglycerides and total cholesterol, respectively), quality control plasma (Sigma # A2034), and samples (2 or 5 μl/well) were measured in duplicate using 200 μl of reagent. An additional aliquot of sample, pipetted to a third well and diluted in 200 μl water, provided a blank for each specimen. Plates were incubated at room temperature (18, 15, and 10 minutes for glucose, triglycerides and total cholesterol, respectively) on a plate shaker (DPC Micormix 5) and absorbance read at 500 nm (glucose and total cholesterol) or 540 nm (triglycerides) on a plate reader (Wallac Victor 1420). Sample absorbances were compared to a standard curve (100–800, 10–500, and 100–400 mg/dl for glucose, triglycerides and total cholesterol, respectively). Values for the quality control sample were always within the expected range and the coefficient of variation for samples was below 10%. All samples from an experiment were assayed at the same time to minimize inter-assay variability.\nSerum lipoproteins were separated and cholesterol quantitated with an in-line detection system. Sample was applied to a Superose® 6 HR 10/30 size exclusion column (Amersham Pharmacia Biotech) and eluted with phosphate buffered saline-EDTA at 0.5 ml/min. […]"}, "huPPARα": {"tested_on": "huPPARα", "assay": "Cotransfection assay in CV-1 cells, luciferase reporter", "type": "cell-based, human", "settings": "GAL4 chimeric system, relative to PPARα agonist reference molecule", "procedure": "[…] binding (ABCD binding) was carried out using SPA technology with PPAR receptors. Tritium-labeled PPARα and PPARγ agonists were used as radioligands for generating displacement curves and IC50 values with compounds of the invention. Cotransfection assays were carried out in CV-1 cells. The reporter plasmid contained an acylCoA oxidase (AOX) PPRE and TK promoter upstream of the luciferase reporter cDNA. Appropriate PPARs and RXRα were constitutively expressed using plasmids containing the CMV promoter. For PPARα and […], interference by endogenous […] in CV-1 cells was an issue. In order to eliminate such interference, a GAL4 chimeric system was used in which the DNA binding domain of the transfected PPAR was replaced by that of GAL4, and the GAL4 response element was utilized in place of the AOX PPRE. Cotransfection efficacy was determined relative to PPARα agonist and […] reference molecules. Efficacies were determined by computer fit to a concentration-response curve, or in some cases at a single high concentration of agonist (10 μM). For binding or cotransfection studies with receptors other than PPARs, similar assays were carried out using appropriate ligands, receptors, reporter constructs, etc., for that particular receptor.\nThese studies were carried out to evaluate the ability of compounds of the invention to bind to and/or activate various nuclear transcription factors, particularly huPPARα (“hu” indicates “human”) and huPPARγ. These studies provide in vitro data concerning efficacy and selectivity of compounds of the invention. Furthermore, binding and cotransfection data for compounds of the invention were compared with corresponding data for marketed compounds that act on either huPPARα or huPPARγ."}}}
{"compound": "Cc1oc(-c2cccc(-c3ccc(F)cc3)c2)nc1CCOc1ccc(CC(C)(Oc2ccccc2)C(=O)O)cc1", "note": "(centres unmarked) [Example 4, 3-(4-{2-[2-(4′-Fluorobiphenyl-3-yl)-5-methyloxazol-4-yl]ethoxy}phenyl)-2-methyl-2-phenoxypropionic acid]", "values": [{"measurement": "% HDLc Increase", "setting": "Hu apoAI transgenic mice", "result": 40.4, "unit": "%"}, {"measurement": "huPPARα CTF Efficacy", "setting": "huPPARα", "result": 38, "unit": "%"}]}
